From ChEMBL document CHEMBL1201862, “PubChem BioAssay data set” (2004)
The source made the active and inactive calls. For most assays here, no stated cut-off is given here; in the data, actives have a measured IC50 and inactives only a lower limit.

What was measured:
[1] = molecular target: T1, Sentrin-specific protease 7 (Homo sapiens, UniProt Q9BQF6); format: functional;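 further: Luminescence-based dose-response confirmation of ultra-high-throughput screening hits, measuring inhibition of SENP7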
T1 sequence (Q9BQF6 whole entry): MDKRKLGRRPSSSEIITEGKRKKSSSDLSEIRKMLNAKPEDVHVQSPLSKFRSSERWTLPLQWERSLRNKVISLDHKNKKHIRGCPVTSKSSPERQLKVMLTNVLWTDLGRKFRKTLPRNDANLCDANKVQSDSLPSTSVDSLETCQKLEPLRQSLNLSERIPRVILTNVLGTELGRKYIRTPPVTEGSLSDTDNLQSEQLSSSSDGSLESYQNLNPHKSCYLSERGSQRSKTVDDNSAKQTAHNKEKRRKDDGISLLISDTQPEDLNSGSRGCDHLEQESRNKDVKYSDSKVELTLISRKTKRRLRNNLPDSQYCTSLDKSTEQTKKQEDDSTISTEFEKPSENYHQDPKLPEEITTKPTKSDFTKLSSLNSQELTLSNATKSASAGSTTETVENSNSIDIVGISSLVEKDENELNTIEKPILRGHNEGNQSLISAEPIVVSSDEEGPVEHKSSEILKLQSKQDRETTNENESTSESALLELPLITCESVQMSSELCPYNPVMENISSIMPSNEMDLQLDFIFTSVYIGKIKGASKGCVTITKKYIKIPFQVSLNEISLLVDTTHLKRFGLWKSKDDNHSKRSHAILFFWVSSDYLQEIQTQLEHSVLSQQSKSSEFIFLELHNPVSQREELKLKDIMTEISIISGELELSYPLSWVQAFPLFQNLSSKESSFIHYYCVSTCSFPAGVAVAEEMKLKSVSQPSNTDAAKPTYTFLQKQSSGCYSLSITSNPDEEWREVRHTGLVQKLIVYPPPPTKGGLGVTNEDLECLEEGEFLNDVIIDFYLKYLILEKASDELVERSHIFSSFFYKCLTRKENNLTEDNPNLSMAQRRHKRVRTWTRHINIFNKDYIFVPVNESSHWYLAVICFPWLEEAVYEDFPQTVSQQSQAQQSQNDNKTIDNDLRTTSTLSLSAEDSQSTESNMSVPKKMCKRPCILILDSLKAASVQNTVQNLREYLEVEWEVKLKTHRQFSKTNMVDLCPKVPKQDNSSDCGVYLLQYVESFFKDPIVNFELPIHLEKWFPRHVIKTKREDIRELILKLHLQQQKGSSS

[2] = molecular target: Heat shock protein HSP 90-alpha (Homo sapiens, UniProt P07900); format: functional, organism-based
cells [3] = format: functional, cell-based
cells [4] = format: functional, cell-based; remark: listed apart in the source
Caspase-3 [5] = molecular target: T2, Caspase-3 (Homo sapiens, UniProt P42574); format: functional;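 further: Dose-response selectivity test against caspase-3 for candidate inhibitors of sentrin-specific proteases (SENPs)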
T2 sequence (P42574 whole entry): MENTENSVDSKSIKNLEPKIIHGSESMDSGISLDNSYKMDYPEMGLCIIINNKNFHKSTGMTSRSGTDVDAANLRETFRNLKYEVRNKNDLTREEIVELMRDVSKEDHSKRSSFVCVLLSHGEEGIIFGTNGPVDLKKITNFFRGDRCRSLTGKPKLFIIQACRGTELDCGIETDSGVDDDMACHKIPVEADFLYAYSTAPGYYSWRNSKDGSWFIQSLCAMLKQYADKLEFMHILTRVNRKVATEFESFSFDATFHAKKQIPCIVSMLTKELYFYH

[6] = molecular target: T3, Sentrin-specific protease 8 (Homo sapiens, UniProt Q96LD8); format: functional;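 further: luminescence read-out of SENP8 inhibition, dose-response confirmation following an ultra-high-throughput screen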
T3 sequence (Q96LD8 whole entry): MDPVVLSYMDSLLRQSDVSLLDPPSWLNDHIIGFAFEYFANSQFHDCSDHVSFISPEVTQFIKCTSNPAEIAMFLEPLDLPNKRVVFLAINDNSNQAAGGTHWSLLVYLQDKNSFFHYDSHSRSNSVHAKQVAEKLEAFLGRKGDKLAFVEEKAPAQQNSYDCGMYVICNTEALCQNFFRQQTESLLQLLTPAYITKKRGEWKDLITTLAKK

[7] = molecular target: T4, Sentrin-specific protease 6 (Homo sapiens, UniProt Q9GZR1); format: functional;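 further: Luminescence-based dose-response confirmatory assay of SENP6 inhibition, following up an ultra-high-throughput screen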
T4 sequence (Q9GZR1 whole entry): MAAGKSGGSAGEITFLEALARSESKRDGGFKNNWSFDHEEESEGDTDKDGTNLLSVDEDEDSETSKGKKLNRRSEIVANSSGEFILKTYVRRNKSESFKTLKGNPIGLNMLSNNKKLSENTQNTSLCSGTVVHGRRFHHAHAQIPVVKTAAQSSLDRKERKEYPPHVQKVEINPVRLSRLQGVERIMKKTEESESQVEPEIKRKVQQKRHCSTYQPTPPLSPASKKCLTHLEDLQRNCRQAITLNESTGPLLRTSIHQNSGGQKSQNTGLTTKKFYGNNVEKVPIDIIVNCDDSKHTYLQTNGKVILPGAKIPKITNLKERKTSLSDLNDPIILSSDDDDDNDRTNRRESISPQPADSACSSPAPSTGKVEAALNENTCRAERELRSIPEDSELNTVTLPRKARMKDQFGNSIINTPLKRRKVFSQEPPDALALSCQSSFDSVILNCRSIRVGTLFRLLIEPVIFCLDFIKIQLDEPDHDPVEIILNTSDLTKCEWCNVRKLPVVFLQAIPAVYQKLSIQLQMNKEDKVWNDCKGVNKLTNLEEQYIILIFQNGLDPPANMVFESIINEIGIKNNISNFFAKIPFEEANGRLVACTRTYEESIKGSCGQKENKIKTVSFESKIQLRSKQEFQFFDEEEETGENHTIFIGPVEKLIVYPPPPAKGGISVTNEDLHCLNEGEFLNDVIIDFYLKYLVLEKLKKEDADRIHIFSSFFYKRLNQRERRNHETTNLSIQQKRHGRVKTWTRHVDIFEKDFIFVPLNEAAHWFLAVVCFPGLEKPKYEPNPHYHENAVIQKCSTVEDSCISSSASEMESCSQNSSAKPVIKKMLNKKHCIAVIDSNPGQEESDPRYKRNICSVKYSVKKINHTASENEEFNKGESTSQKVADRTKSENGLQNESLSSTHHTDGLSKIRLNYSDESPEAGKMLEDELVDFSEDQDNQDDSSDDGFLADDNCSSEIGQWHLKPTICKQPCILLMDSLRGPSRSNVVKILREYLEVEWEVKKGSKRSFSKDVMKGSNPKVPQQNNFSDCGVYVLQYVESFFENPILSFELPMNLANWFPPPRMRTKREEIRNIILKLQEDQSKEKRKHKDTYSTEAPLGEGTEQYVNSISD

[8] = molecular target: T1, Sentrin-specific protease 7; experiment: SENP7 protease inhibitors, SAR follow-up, biochemical, luminescence, set 2 (AID 588600); format: functional
[9] = molecular target: T4, Sentrin-specific protease 6; experiment: SENP6 protease inhibitors, SAR follow-up, biochemical, luminescence, set 2 (AID 588598); format: functional
Caspase-3 [10] = molecular target: T2, Caspase-3; experiment: caspase-3 inhibitors as off-family protease, SAR follow-up, selectivity assay for SENP protease inhibitor project, biochemical, luminescence, set 2 (AID 588599); format: functional
[11] = molecular target: T3, Sentrin-specific protease 8; experiment: SENP8 protease inhibitors, SAR follow-up, biochemical, luminescence, set 2 (AID 588601); format: functional

| IC50 [8] | IC50 [9] | IC50 (Caspase-3 [10]) | SMILES | IC50 [1] | AC50 [2] | EC50 (cells [3]) | EC50 (cells [4]) | IC50 (Caspase-3 [5]) | IC50 [6] | IC50 [7] | IC50 [11] |
| --- | --- | --- | --- | --- | --- | --- | --- | --- | --- | --- | --- |
|  |  |  | CCCCNc1nc(N)nc(-c2cc(Cl)ccc2O)n1 | 4.54 µM (active) | 4.87 µM (active) | 3.49 µM (active) | > 350 µM (not active) | 44.1 µM (active) | > 100 µM (inactive) | > 100 µM (inactive) |  |
| > 99 µM (inactive) | > 99 µM (inactive) | > 99 µM (inactive) | COc1ccc2nc(NC(=O)c3ccccc3NS(=O)(=O)c3ccc4c(c3)OCCO4)sc2c1 |  |  |  |  |  |  |  | > 99 µM (inactive) |
